Experimental data published in US20030059511A1, “Sweetener compositions and uses thereof” (AJINOMOTO CO., INC., priority 1999, published 2003).
Where a SMILES comes first, the peptide text is derived from it.

Assay: Equations for calculating sweetness intensity and values calculated from them
Assay type: in vivo, human
Settings: 20° C., pH 2.8
Description: For example, when preparing a solution having a intensity of sweetness equivalent to that of 10% sucrose, wherein 80% of the 10% of intensity of sweetness is from the sweetener component A and the residual 20% is from the sweetener component B, the sweetness ratio is A:B=8:2. When the sweetening magnification relative to sucrose varies depending on the composition and the concentration of the sweetener component is varied even if it is a same sweetener component (in this case, an exponential curve can be prepared and used for calculation), the objective weight of the sweetener component can be calculated. For example, if the equation for converting sweetness intensity (the exponential curve) component A is Y=aX^b, and the equation for converting sweetness intensity (the exponential curve)of component B is Y=cX^d, the weight ratio of the components A and B in the ratio A:B=8:2, can be determined using the following calculation, where Y is a concentration equivalent to that of sucrose (PSE %), and X is the sweetener component concentration (g/100 ml):
(§1) Equations for calculating sweetness intensity in the cola drink (pH 2.8, 20° C.) are as follows, wherein Y denotes the concentration equivalent to that of sucrose (g/100 ml) and X denotes the concentration of the sweetener (g/100 ml), respectively.
With regard to Acesulfame K, the magnification of sweetness intensity was determined according to the following equation for calculating sweetness intensity.
[Y: concentration equivalent to that of sucrose (g/100ml); X: concentration of Acesulfame K (g/100 ml)]
By using the equation for calculating sweetness intensity in the cola drink (refer to Example 4) and the equation for calculating sweetness intensity of Aspartame (refer to the monthly Journal “Food Chemical” August, page 35, 1997), the necessary amounts of those were calculated. In case of Aspartame, the values at 20° C., pH2.8 were used.
The equation for calculating sweetness intensity of derivative 1 in the aqueous solution is as follows.
Where, the calculation of the sweetness was made by using the equation for calculating sweetness intensity of derivative 4 Y=58775X^1.04. When Y=6.3%, X=0.00015 g/100 ml, When Y=5.1%, X=0.00012 g/100 ml.
as §1, with “Examples for equations” for “Equations”, “(pH2.8,” for “(pH 2.8,”, “follows, and another equations can be prepared in the same manner,” for “follows,”
With `COC(=O)[C@H](Cc1ccccc1)NC(=O)[C@@H](N)CC(=O)O` [Aspartame, reference compound] (H-Asp-Phe-OMe) the “X, concentration of the sweetener when Y=0.5” value was 0.00072 g/100 ml and the “X, concentration of the sweetener when Y=9” value was 0.04726 g/100 ml.

Same assay, conditions: calculated; block ice of Example 12
In the case of `COC(=O)[C@H](Cc1ccccc1)NC(=O)[C@@H](N)CC(=O)O` [Aspartame, reference compound] (H-Asp-Phe-OMe), the “magnification of the sweetness intensity at PSE 5%” value is reported as 130 times.

Same assay, conditions: calculated; sweetener for tabletop use
For `OC[C@@H](O)[C@@H](O)CO` [Erythritol, reference compound], the “magnification of sweetness intensity at PSE 0.5%” value was 0.75 times.
For `COC(=O)[C@H](Cc1ccccc1)NC(=O)[C@@H](N)CC(=O)O` [Aspartame, reference compound] (H-Asp-Phe-OMe), the “magnification of sweetness intensity at PSE 0.5%” value was 360 times.

Same assay, conditions: cola drink, pH 2.8, 20° C.
With `COC(=O)[C@H](Cc1ccccc1)NC(=O)[C@@H](N)CC(=O)O` [Aspartame, reference compound] (H-Asp-Phe-OMe) the “X, concentration of the sweetener when Y=2” value was 0.0053 g/100 ml, the “X, concentration of the sweetener when Y=5” value was 0.0202 g/100 ml and the “X, concentration of the sweetener when Y=8” value was 0.0398 g/100 ml.

Assay: Taste characteristics in a cola drink (9 items, similarity index vs cola drink containing 10% sucrose)
Assay type: in vivo, human
Settings: non-carbonated cola drink, PSE 10%, vs cola drink with 10% sucrose; smaller = closer to sucrose; 8 panelists
Protocol: The following experiments were performed in the same way as that of Example 2. Instead of aqueous solution, the cola drink of each of derivatives 1 to 9 having a sweetness level equivalent to that of PSE 10% was prepared, and compared with the cola drink containing 10% sucrose. The evaluation method and so on were same as that of Example 2.
When carbon dioxide is blown in the cola drink, the carbonated cola drink is prepared, however, the taste of the cola drink can be compared more easily in that without carbon dioxide. Thus the sensory evaluation of non-carbonated cola drink was performed.
The composition of the cola drink employed was same as that of Example 1.
(§2) The similarity indexes were calculated as those of aqueous solutions. The smaller the similarity index becomes, the better the taste balances, and the closer the taste is to the taste characteristics (quality) of sucrose. The total taste becomes preferable. The similarity indexes of each derivatives are shown as follows. […]
The following experiments were conducted in the same way as that of Example 15. Instead of aqueous solution, the cola drink of each of derivatives 1 to 9 having a sweetness level equivalent to that of PSE 10% was prepared, and compared with the cola drink containing 10% sucrose. All of the evaluation method and so on were same as those of Example 15.
When carbon dioxide is blown in the cola drink, the carbonated cola drink is prepared, however, the taste of the cola drink can be compared more easily in that without carbon dioxide. Thus the non-carbonated cola drink was organoleptically evaluated.
The composition of the cola drink employed was same as that of Example 14.
as §2, with “(quality)of” for “(quality) of”, “each of the” for “each”
For `CC1=CC(=O)[N-]S(=O)(=O)O1.[K+]` [Acesulfame K, reference compound], the Similarity index was roughly 2.0.

Assay: not given
Settings: reported in JP-A-8-503206 / JP-B-47-31031; cited from earlier work
In the case of `COC(=O)[C@H](Cc1ccccc1)NC(=O)[C@@H](N)CC(=O)O` [Aspartame, reference compound] (H-Asp-Phe-OMe), the “sweetness intensity, times that of sucrose by weight” value is listed as 200 times.
For `COC(=O)[C@H](Cc1ccccc1)NC(=O)[C@H](CC(=O)O)NCCC(C)(C)C` [Neotame], the “sweetness intensity, times that of sucrose by weight” value is given as 10000 times.

Same assay, conditions: values used for calculation in Example 5; cited from earlier work
For `O=S(=O)([O-])NC1CCCCC1.[Na+]` [sodium cyclamate], the “magnification used for the sweetness intensity of the another sweetener with a high intense sweetness” value (shortened to “magnification used”) is given as 30 times.
For `C[C@@H](NC(=O)[C@@H](N)CC(=O)O)C(=O)NC1C(C)(C)SC1(C)C` [Alitame], the “magnification used” value is given as 2000 times.
For `C=C1C[C@@]23CC[C@H]4[C@@](C)(CCC[C@@]4(C)C(=O)O[C@@H]4O[C@H](CO)[C@@H](O)[C@H](O)[C@H]4O)[C@@H]2CC[C@]1(O[C@@H]1O[C@H](CO)[C@@H](O)[C@H](O)[C@H]1O[C@@H]1O[C@H](CO)[C@@H](O)[C@H](O)[C@H]1O)C3` [Stevioside], the “magnification used” value is given as 140 times.
In the case of `OC[C@H]1O[C@H](O[C@]2(CCl)O[C@H](CCl)[C@@H](O)[C@@H]2O)[C@H](O)[C@@H](O)[C@H]1Cl` [suclarose], the “magnification used” value is listed as 400 times.
In the case of `CC1(C)[C@@H](O[C@H]2O[C@H](C(=O)[O-])[C@@H](O)[C@H](O)[C@H]2O[C@@H]2O[C@H](C(=O)O)[C@@H](O)[C@H](O)[C@H]2O)CC[C@]2(C)[C@H]3C(=O)C=C4[C@@H]5C[C@@](C)(C(=O)[O-])CC[C@]5(C)CC[C@@]4(C)[C@]3(C)CC[C@@H]12.[Na+].[Na+]` [disodium glycyrrhizinate], the “magnification used” value is listed as 100 times.
For Thaumatin, the “magnification used” value is given as 850 times.
In the case of `O=C1NS(=O)(=O)c2ccccc21` [Saccharine], the “magnification used” value is given as 190 times.
In the case of `O=C1NS(=O)(=O)c2ccccc21.[Na]` [Sodium Saccharine], the “magnification used” value is listed as 190 times.

Same assay, conditions: values used for calculation in Example 17; sucrose = 1; cited from earlier work
In the case of `OC[C@H]1O[C@H](OC[C@H]2OC(O)(CO)[C@@H](O)[C@@H]2O)[C@H](O)[C@@H](O)[C@@H]1O` (stereo partly drawn) [paratinose], the “magnification of sweetness intensity (numerical values in brackets)” value (from here on “magnification … (numerical values in brackets)”) is given as 0.4.
In the case of `OC[C@@H](O)[C@@H](O[C@H]1O[C@H](CO)[C@@H](O)[C@H](O)[C@H]1O)[C@H](O)[C@@H](O)CO` [maltitol], the “magnification … (numerical values in brackets)” value is listed as 0.75.
In the case of paratinit, the “magnification … (numerical values in brackets)” value is given as 0.45.
In the case of `OC[C@H]1O[C@H](O[C@H]2[C@H](O)[C@@H](O)[C@H](O)O[C@@H]2CO)[C@H](O)[C@@H](O)[C@@H]1O` [malt sugar], the “magnification … (numerical values in brackets)” value is listed as 0.3.
In the case of `OC[C@H]1O[C@H](O[C@H]2O[C@H](CO)[C@@H](O)[C@H](O)[C@H]2O)[C@H](O)[C@@H](O)[C@@H]1O` [trehalose], the “magnification … (numerical values in brackets)” value is given as 0.45.
In the case of isomerized lactose, the “magnification … (numerical values in brackets)” value is given as 0.6.
In the case of `OC[C@@H](O)[C@@H](O)[C@H](O)[C@@H](O)CO` [sorbitol], the “magnification … (numerical values in brackets)” value is listed as 0.75.
In the case of `OC[C@@H](O)[C@H](O)[C@@H](O)CO` [xylitol], the “magnification … (numerical values in brackets)” value is given as 1.
For `OC[C@@H](O)[C@@H](O)CO` [Erythritol, reference compound], the “magnification … (numerical values in brackets)” value is listed as 0.75.
For `OC[C@@H](O)[C@@H](O[C@@H]1O[C@H](CO)[C@H](O)[C@H](O)[C@H]1O)[C@H](O)[C@@H](O)CO` [lactitol], the “magnification … (numerical values in brackets)” value is given as 0.35.
For `OC[C@@H](O)[C@@H](O)[C@H](O)[C@H](O)CO` [mannitol], the “magnification … (numerical values in brackets)” value is given as 0.6.
For `O=C[C@H](O)[C@@H](O)[C@H](O)CO` [D-xylose], the “magnification … (numerical values in brackets)” value is given as 0.4.
For `OC[C@H]1O[C@@H](O[C@H]2[C@H](O)[C@@H](O)C(O)O[C@@H]2CO)[C@H](O)[C@@H](O)[C@H]1O` (stereo partly drawn) [lactose], the “magnification … (numerical values in brackets)” value is given as 0.2.
For `O=C(CO)[C@@H](O)[C@H](O)[C@H](O)CO` [fructose], the “magnification … (numerical values in brackets)” value is given as 1.4.
